Measurements published in patent US6642226B2, “Substituted phenyl-piperidine methanone compounds” (Hoffman-La Roche Inc., priority 2001, dated 2003).

Target: T1, human NK1 receptor (Homo sapiens, UniProt P25103)
T1 construct: expressed in transfected cells; host or cells: CHO cells, Semliki virus expression system; membrane suspension
Experiment: NK1 receptor binding, [3H]substance P displacement
Details: for relative activity of enantiomer in the test for NK-1 binding: enantiomer fraction from Chiralpak AD separation of the racemate; for Ki: human NK1 receptors in CHO cells, [3H]substance P 0.6 nM, read-out: pKi (affinity to the NK-1 receptor) (converted)
Method: The affinity of test compounds for the NK1 receptor was evaluated at human NK1 receptors in CHO cells infected with the human NK1 receptor (using the Semliki virus expression system) and radiolabelled with [^3H]substance P (final concentration 0.6 nM). Binding assays were performed in HEPES buffer (50 mM, pH 7.4) containing BSA (0.04%) leupeptin (8 μg/ml), MnCl2 (3 mM) and phosphoramidon (2 μM). Binding assays consisted of 250 μl of membrane suspension (1.25×10^5 cells/assay tube), […] of buffer of displacing agent and 125 μl of [^3H]substance P. Displacement curves were determined with at least seven concentrations of the compound. The assay tubes were incubated for 60 min at room temperature after which time the tube contents were rapidly filtered under vacuum through GF/C filters presoaked for 60 min with PEI (0.3%) with 2×2 ml washes of HEPES buffer (50 mM, pH 7.4). The radioactivity retained on the filters was measured by scintillation counting. All assays were performed in triplicate in at least 2 separate experiments.

T1 sequence (P25103 whole entry): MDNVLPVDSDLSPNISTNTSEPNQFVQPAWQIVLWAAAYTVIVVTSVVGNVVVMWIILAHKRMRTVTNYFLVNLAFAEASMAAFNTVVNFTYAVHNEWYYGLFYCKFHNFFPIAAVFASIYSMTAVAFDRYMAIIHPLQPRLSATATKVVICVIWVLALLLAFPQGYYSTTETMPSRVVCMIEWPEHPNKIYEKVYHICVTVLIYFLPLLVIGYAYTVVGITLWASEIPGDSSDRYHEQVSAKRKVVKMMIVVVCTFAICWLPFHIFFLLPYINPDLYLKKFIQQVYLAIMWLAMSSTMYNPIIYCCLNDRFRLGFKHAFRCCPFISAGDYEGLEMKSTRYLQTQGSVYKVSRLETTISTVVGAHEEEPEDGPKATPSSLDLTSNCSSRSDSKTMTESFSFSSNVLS

relative activity of enantiomer in the test for NK-1 binding	Ki [nM]	Compound
more active enantiomer	2.45	CN1CCN([C@@H]2CCN(C(=O)c3cc(C(F)(F)F)cc(C(F)(F)F)c3)C[C@@H]2c2ccc(F)cc2)CC1 (single isomer, unassigned) [Example 90, (−)-(3,5-Bis-trifluoromethyl-phenyl)-[3-(4-fluoro-phenyl)-4-(4-methyl-piperazin-1-yl)-piperidin-1-yl]-methanone]
	3.16	O=C(c1cc(C(F)(F)F)cc(C(F)(F)F)c1)N1CC[C@H](N2CCN(CC3CC3)CC2)[C@H](c2ccc(F)cc2)C1 (racemic) [Example 88, Rac-cis-(3,5-Bis-trifluoromethyl-phenyl)-[4-(4-cyclopropylmethyl-piperazin-1-yl)-3-(4-fluoro-phenyl)-piperidin-1-yl]-methanone]
more active enantiomer		CC(C)(C)OC(=O)N1CCN(C2CCN(C(=O)c3cc(C(F)(F)F)cc(C(F)(F)F)c3)CC2c2ccccc2)CC1 (single isomer, unassigned; (-)) [Example 101, (−)-4-[1-(3,5-Bis-trifluoromethyl-benzoyl)-3-phenyl-piperidin-4-yl]-piperazine-1-carboxylic Acid Tert-Butyl Ester]
	2.04	O=C(Cc1ccccc1)NC1CCCN(C2CCN(C(=O)c3cc(C(F)(F)F)cc(C(F)(F)F)c3)CC2c2ccc(F)cc2)C1 (mixture of isomers) [Example 79, (3RS,3′RS,4SR)- and (3RS,3′SR,4SR)-N-[1′-(3,5-Bis-trifluoromethyl-benzoyl)-3′-(4-fluoro-phenyl)-[1,4′]bipiperidinyl-3-yl]-2-phenyl-acetamide]
more active enantiomer		CN1CCN(C2CCN(C(=O)c3cc(Cl)cc(Cl)c3)CC2c2ccccc2)CC1 (single isomer, unassigned; (+)) [Example 127, (+)-(3,5-Dichloro-phenyl)-[4-(4-methyl-piperazin-1-yl)-3-phenyl-piperidin-1-yl]-methanone]
	2.75	O=C(c1cc(C(F)(F)F)cc(C(F)(F)F)c1)N1CCC(N2CCC(OCC3CC3)CC2)C(c2ccc(Cl)cc2)C1 (racemic) [Example 66, Rac-cis-(3,5-Bis-trifluoromethyl-phenyl)-[3′-(4-chloro-phenyl)-4-cyclopropylmethoxy-[1,4′]bipiperidinyl-1′-yl]-methanone]
more active enantiomer	2.69	CN1CCN([C@@H]2CCN(C(=O)c3cc(C(F)(F)F)cc(C(F)(F)F)c3)C[C@@H]2c2ccccc2)CC1 (single isomer, unassigned) [Example 92, (−)-(3,5-Bis-trifluoromethyl-phenyl)-[3-phenyl-4-(4-methyl-piperazin-1-yl)-piperidin-1-yl]-methanone]
more active enantiomer	3.16	O=C(c1cc(C(F)(F)F)cc(C(F)(F)F)c1)N1CC[C@@H](N2CCCC2)[C@@H](c2ccc(Cl)cc2)C1 (single isomer, unassigned) [Example 80, (−)-(3,5-Bis-trifluoromethyl-phenyl)-[3-(4-chloro-phenyl)-4-pyrrolidin-1-yl-piperidin-1-yl]-methanone]
	0.912	O=C(c1cc(C(F)(F)F)cc(C(F)(F)F)c1)N1CCC(N2CCN(CCO)CC2)C(c2ccccc2)C1 (single isomer, unassigned; (-)) [Example 115, (−)-(3,5-Bis-trifluoromethyl-phenyl)-{4-[4-(2-hydroxy-ethyl)-piperazin-1-yl]-3-phenyl-piperidin-1-yl}-methanone]
more active enantiomer	1.41	O=C(c1cc(C(F)(F)F)cc(C(F)(F)F)c1)N1CC[C@@H](N2CCN(C(=O)C3CC3)CC2)[C@@H](c2ccccc2)C1 (single isomer, unassigned) [Example 65, (+)-(3,5-Bis-trifluoromethyl-phenyl)-[4-(4-cyclopropanecarbonyl-piperazin-1-yl)-3-phenyl-piperidin-1-yl]-methanone]
	1.05	Cc1ccc(C2CN(C(=O)c3cc(C(F)(F)F)cc(C(F)(F)F)c3)CCC2N2CCN(C3CC3)CC2)cc1 (single isomer, unassigned; (-)) [Example 110, (−)-(3,5-Bis-trifluoromethyl-phenyl)-[4-(4-cyclopropyl-piperazin-1-yl)-3-p-tolyl-piperidin-1-yl]-methanone]
	0.457	Cc1ccc(C2CN(C(=O)c3cc(C(F)(F)F)cc(C(F)(F)F)c3)CCC2N2CCN(C)CC2)cc1 (single isomer, unassigned; (-)) [Example 111, (−)-(3,5-Bis-trifluoromethyl-phenyl)-[4-(4-methyl-piperazin-1-yl)-3-p-tolyl-piperidin-1-yl]-methanone]
more active enantiomer		Cc1ccc(C2CN(C(=O)c3cc(C(F)(F)F)cc(C(F)(F)F)c3)CCC2N2CCN(C(=O)C(F)(F)F)CC2)cc1 (single isomer, unassigned; (-)) [Example 100, (−)-{4-[1-(3,5-Bis-trifluoromethyl-benzoyl)-3-p-tolyl-piperidin-4-yl]-piperazin-1-yl}-2,2,2-trifluoro-ethanone]
	2.14	Cc1ccc(C2CN(C(=O)c3cc(C(F)(F)F)cc(C(F)(F)F)c3)CCC2N2CCN(C(=O)C3CC3)CC2)cc1 (single isomer, unassigned; (-)) [Example 103, (−)-(3,5-Bis-trifluoromethyl-phenyl)-[4-(4-cyclopropanecarbonyl-piperazin-1-yl)-3-p-tolyl-piperidin-1-yl]-methanone]
more active enantiomer		O=C(c1cc(C(F)(F)F)cc(C(F)(F)F)c1)N1CCC(N2CCN(C(=O)C3CC3)CC2)C(c2ccc(F)cc2)C1 (single isomer, unassigned; (+)) [Example 85, (+)-(3,5-Bis-trifluoromethyl-phenyl)-[4-(4-cyclopropanecarbonyl-piperazin-1-yl)-3-(4-fluoro-phenyl)-piperidin-1-yl]-methanone]
	0.363	O=C(c1cc(C(F)(F)F)cc(C(F)(F)F)c1)N1CCC(N2CCN(CC3CC3)CC2)C(c2ccccc2)C1 (single isomer, unassigned; (-)) [Example 114, (−)-(3,5-Bis-trifluoromethyl-phenyl)-[4-(4-cyclopropylmethyl-piperazin-1-yl)-3-phenyl-piperidin-1-yl]-methanone]
	2.95	O=C(NC1CCCN(C2CCN(C(=O)c3cc(C(F)(F)F)cc(C(F)(F)F)c3)CC2c2ccc(F)cc2)C1)C1CC1 (mixture of isomers) [Example 77, (3RS,3′RS,4SR)- and (3RS,3′SR,4SR)-Cyclopropanecarboxylic acid [1′-(3,5-bis-trifluoromethyl-benzoyl)-3′-(4-fluoro-phenyl)-[1,4′]bipiperidinyl-3-yl]-amide]
more active enantiomer	2.57	O=C(c1cc(C(F)(F)F)cc(C(F)(F)F)c1)N1CC[C@@H](N2CCOCC2)[C@@H](c2ccc(Cl)cc2)C1 (single isomer, unassigned) [Example 70, (−)-(3,5-Bis-trifluoromethyl-phenyl)-[3-(4-chloro-phenyl)-4-morpholin-4-yl-piperidin-1-yl]-methanone]
